17 compounds from patent publication US20130252930A1 (BIOMARIN PHARMACEUTICAL INC., priority 2010, published 2013) can be followed below.

Series [1] deals with T1, Cyp21 enzyme (Human HEK 293-Cyp21 stable transfected cells) (Homo sapiens, UniProt P08686).
T1 construct: expressed in transfected cells
T1 sequence (P08686 1-495): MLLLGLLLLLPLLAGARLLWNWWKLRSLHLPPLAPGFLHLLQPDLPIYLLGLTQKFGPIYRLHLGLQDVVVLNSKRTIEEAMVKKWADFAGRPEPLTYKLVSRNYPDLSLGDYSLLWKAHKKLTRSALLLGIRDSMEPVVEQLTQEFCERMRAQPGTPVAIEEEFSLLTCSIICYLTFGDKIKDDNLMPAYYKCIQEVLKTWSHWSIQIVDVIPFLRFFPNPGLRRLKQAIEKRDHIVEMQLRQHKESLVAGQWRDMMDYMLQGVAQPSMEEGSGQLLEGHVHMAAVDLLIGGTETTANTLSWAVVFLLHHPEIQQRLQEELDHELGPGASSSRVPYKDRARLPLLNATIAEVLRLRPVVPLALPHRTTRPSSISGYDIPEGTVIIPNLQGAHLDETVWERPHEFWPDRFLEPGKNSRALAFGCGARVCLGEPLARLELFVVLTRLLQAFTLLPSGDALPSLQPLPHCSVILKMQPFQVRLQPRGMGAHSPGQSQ
Nature of the series: CYP21-HEK293 enzymatic assay (IC50) (Biological Example 11). The format is cell-based.

The nature of series [2]: Human liver microsome stability assay (Biological Example 8b). Particulars: liver microsomes, pH 7.4. (In general: Liver microsomes are a subcellular fraction often used to study metabolism.)
Experimental: The reaction was started with addition of excess NADPH (5 mg/mL, 15 μL in 0.1 M potassium phosphate buffer, 1.0 mM EDTA, pH 7.4), the total volume is 45 μL (compound final concentration was 1 μM). […] 50 μL of the supernatant was transferred from each well into a 96-well sample plate containing 50 μL of ultra-pure water (Millipore) for LC-MS/MS analysis.
Series [3] deals with T2, CYP17 (human testicular microsome) (Homo sapiens, UniProt P05093).
T2 construct: using microsomal fraction from human testis (Celsis Cat #S00110) as the enzyme source; tissue Celsis S00110; host or cells: human testis microsomal fraction
T2 sequence (P05093 1-508): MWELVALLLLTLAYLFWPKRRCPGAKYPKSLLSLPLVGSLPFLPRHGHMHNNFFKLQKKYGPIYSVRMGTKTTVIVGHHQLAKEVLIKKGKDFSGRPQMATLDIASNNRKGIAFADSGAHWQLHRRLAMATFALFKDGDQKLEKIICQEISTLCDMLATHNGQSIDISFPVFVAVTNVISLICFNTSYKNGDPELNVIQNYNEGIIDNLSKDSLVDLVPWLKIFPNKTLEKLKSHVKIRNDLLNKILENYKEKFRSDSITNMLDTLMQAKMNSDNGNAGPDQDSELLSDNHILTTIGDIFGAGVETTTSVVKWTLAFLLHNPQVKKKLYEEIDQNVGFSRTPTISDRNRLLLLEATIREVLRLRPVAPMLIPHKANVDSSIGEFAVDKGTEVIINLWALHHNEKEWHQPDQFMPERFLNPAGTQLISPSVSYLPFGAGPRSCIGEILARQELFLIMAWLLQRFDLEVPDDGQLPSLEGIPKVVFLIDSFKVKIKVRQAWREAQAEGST
Nature of the series: CYP17 enzymatic assay (% inhibition at 1 nM) (Biological Example 12). The format is biochemical. To be noted: compound at 1 nM.

Series [4] deals with T2, CYP17 (human testicular microsome). Nature of the series: CYP17 enzymatic assay (IC50) (Biological Example 4). Type of series: biochemical. Particulars: human testicular microsome; read-out: Biological Example No. 4: CYP17 enzymatic assay IC50.
Where [5] appears, read: HEK 293-Cyp21 cells, read-out: Biological Example No. 11: CYP21-HEK293 enzymatic assay IC50.
Setting [6] is: read-out: Biological Example No. 12: CYP17 enzymatic assay % inhibition at 1 nM.
The mark [7] stands for this setting: HEK 293-Cyp21 cells, read-out: CYP21-HEK293 enzymatic assay IC50 (Biological Example No. 11).
[8] abbreviates: read-out: CYP17 enzymatic assay % inhibition at 1 nM (Biological Example No. 12).
Setting [9] is: HEK 293-Cyp21 stable transfected cells, read-out: CYP21-HEK293 enzymatic assay IC50 (Biological Example No. 11).

Read-outs that look alike come from different tables or passages of the source.

Usually IC50 stands for the midpoint of a concentration-inhibition curve. By half-life is commonly meant how long it takes for the measured level to halve. The term inhibition denotes the share of the control response that was lost under treatment. In the case of `CC1CC2C3=CC=C(c4cncc(F)c4)[C@@]3(C)CCC2[C@@]2(C)CCNC(=O)C=C12` (stereo partly drawn) [Compound 389, (5aR,7aS)-8-(5-fluoropyridin-3-yl)-5a,7a,12-trimethyl-3,4,5,5a,5b,6,7,7a,11,12-decahydrocyclopenta[5,6]naphtho[1,2-d]azepin-2(10bH)-one], the IC50 in series [1] (setting [5]) lay in the range of 10 to 100 nM. Moreover, in series [2], the half-life at 1 μM is 1 to 50 min. The inhibition at 0.001 µM in series [3] (setting [6]) was 10 to 50%.

On to `C[C@]12CCC(=O)C(O)=C1C=C[C@@H]1[C@@H]2CC[C@]2(C)C(c3cccnc3)=CC[C@@H]12` [Compound 301, (10R,13S)-4-hydroxy-10,13-dimethyl-17-(pyridin-3-yl)-8,9,10,11,12,13,14,15-octahydro-1H-cyclopenta[a]phenanthren-3(2H)-one], for which, in series [1] (setting [7]), the IC50 was > 1000 nM. Besides, the half-life at 1 μM in series [2] lay in the range of 1 to 50 min. For the same compound, the inhibition at 0.001 µM in series [3] (setting [8]) is > 50%.

Turning to `C[C@]12CCC(=O)C=C1C(F)C[C@@H]1[C@@H]2CC[C@]2(C)C(c3cncc(F)c3)=CC[C@@H]12` (stereo partly drawn) [Compound 325, (10R,13S)-6-fluoro-17-(5-fluoropyridin-3-yl)-10,13-dimethyl-6,7,8,9,10,11,12,13,14,15-decahydro-1H-cyclopenta[a]phenanthren-3(2H)-one], the IC50 was < 11 nM in series [4] and > 1000 nM in series [1] (setting [5]). The same compound gave a half-life at 1 μM in series [2] of 1 to 50 min. The inhibition at 0.001 µM in series [3] (setting [6]) is > 50%.

For the compound `C[C@]12CCC3C(CCC4=CC(=O)NCC[C@@]43C)C1=CC=C2c1cncc(C(F)F)c1` (stereo partly drawn) [Compound 390, (5aR,7aS)-8-(5-(difluoromethyl)pyridin-3-yl)-5a,7a-dimethyl-3,4,5,5a,5b,6,7,7a,11,12-decahydrocyclopenta[5,6]naphtho[1,2-d]azepin-2(10bH)-one], the IC50 was < 11 nM in series [4] and > 1000 nM in series [1] (setting [5]). The inhibition at 0.001 µM in series [3] (setting [6]) was > 50%.

`C[C@]12CCC3C(CCC4=CC(=O)CC[C@@]43C)C1=CC=C2c1cnccn1` (stereo partly drawn) [Compound 291, (10R,13S)-10,13-dimethyl-17-(pyrazin-2-yl)-6,7,8,9,10,11,12,13-octahydro-1H-cyclopenta[a]phenanthren-3(2H)-one]: the IC50 in series [1] (setting [7]) is > 100 nM. The same compound returned a half-life at 1 μM in series [2] of 1 to 50 min. Besides, the inhibition at 0.001 µM in series [3] (setting [8]) is > 50%.

For `C[C@]12CC[C@H]3[C@@H](CC(CO)C4=CC(=O)CC[C@@]43C)C1=CC=C2c1cccnc1` (stereo partly drawn) [Compound 340, (10R,13S)-6-(hydroxymethyl)-10,13-dimethyl-17-(pyridin-3-yl)-6,7,8,9,10,11,12,13-octahydro-1H-cyclopenta[a]phenanthren-3(2H)-one], the IC50 in series [4] was < 11 nM; in series [1] (setting [5]) it was > 100 nM. Also, in series [3] (setting [6]), the inhibition at 0.001 µM was > 50%.

For the compound `CC1CC2C(CC[C@]3(C)C(c4cccnc4)=CCC23)[C@@]2(C)CCC(=NO)C=C12` (stereo partly drawn) [Compound 361, (10R,13S)-6,10,13-trimethyl-17-(pyridin-3-yl)-6,7,8,9,10,11,12,13,14,15-decahydro-1H-cyclopenta[a]phenanthren-3(2H)-one oxime], the IC50 in series [1] (setting [5]) was > 100 nM. Also, the half-life at 1 μM in series [2] fell in the range of 1 to 50 min. The inhibition at 0.001 µM in series [3] (setting [6]) fell in the range of 10 to 50%.

Consider `CC1C[C@@H]2[C@H](CC[C@]3(C)C(c4cccnc4)CC[C@@H]23)[C@@]2(C)CCC(=O)C=C12` (stereo partly drawn) [Compound 420, (10R,13S)-6,10,13-trimethyl-17-(pyridin-3-yl)-6,7,8,9,10,11,12,13,14,15,16,17-dodecahydro-1H-cyclopenta[a]phenanthren-3(2H)-one], for which the IC50 in series [1] (setting [9]) was < 10 nM. Further, in series [2], the half-life at 1 μM is 1 to 50 min.

As for `C[C@]12CCC(=O)C=C1C(=O)CC1C2CC[C@]2(C)C(c3cncc(F)c3)=CCC12` (stereo partly drawn) [Compound 417, (10R,13S)-17-(5-fluoropyridin-3-yl)-10,13-dimethyl-7,8,9,11,12,13,14,15-octahydro-1H-cyclopenta[a]phenanthrene-3,6(2H,10H)-dione], the IC50 in series [4] was < 11 nM; in series [1] (setting [5]) it was > 1000 nM. Besides, the inhibition at 0.001 µM in series [3] (setting [6]) was > 50%.

As to `CC1C[C@@H]2[C@H](CC[C@]3(C)C(c4cncc(F)c4)=CC[C@@H]23)[C@@]2(C)C=CC(=O)C=C12` (stereo partly drawn) [Compound 345, (10R,13S)-17-(5-fluoropyridin-3-yl)-6,10,13-trimethyl-6,7,8,9,10,11,12,13,14,15-decahydro-3H-cyclopenta[a]phenanthren-3-one], the IC50 in series [4] was < 11 nM; in series [1] (setting [5]), 10 to 100 nM. Moreover, in series [3] (setting [6]), the inhibition at 0.001 µM is > 50%.

Take `C[C@]12CCC(=O)CC1C(=O)CC1C2CC[C@]2(C)C(c3cncc(F)c3)=CCC12` (stereo partly drawn) [Compound 418, (10R,13S)-17-(5-fluoropyridin-3-yl)-10,13-dimethyl-4,5,7,8,9,11,12,13,14,15-decahydro-1H-cyclopenta[a]phenanthrene-3,6(2H,10H)-dione]: the results for the IC50 in series [4] and in series [1] (setting [5]) were < 11 nM and > 1000 nM, respectively. Further, the inhibition at 0.001 µM in series [3] (setting [6]) is > 50%.

Consider `C[C@]12CCC(=O)C=C1C=CC1C2CC[C@]2(C)C(c3cccnc3)=CCC12` (stereo partly drawn) [Compound 408, (10R,13S)-10,13-dimethyl-17-(pyridin-3-yl)-8,9,10,11,12,13,14,15-octahydro-1H-cyclopenta[a]phenanthren-3(2H)-one], for which the half-maximal inhibitory concentration (IC50) in series [1] (setting [5]) was > 100 nM. The same compound yielded a half-life at 1 μM in series [2] of 1 to 50 min. Moreover, the inhibition at 0.001 µM in series [3] (setting [6]) was > 50%.

With `C=C1C[C@H]2C3=CC=C(c4cccnc4)[C@@]3(C)CC[C@@H]2[C@@]2(C)C=CC(=O)C=C12` [Compound 350, (10R,13S)-10,13-dimethyl-6-methylene-17-(pyridin-3-yl)-6,7,8,9,10,11,12,13-octahydro-3H-cyclopenta[a]phenanthren-3-one], the IC50 in series [1] (setting [9]) was < 10 nM. Moreover, in series [2], the half-life at 1 μM was 1 to 50 min.

Turning to `C[C@]12CCC(=O)C=C1C1CC1[C@@H]1[C@@H]2CC[C@]2(C)C(c3cccnc3)=CC[C@@H]12` (stereo partly drawn) [Compound 319, (4aR,6aS)-4a,6a-dimethyl-7-(pyridin-3-yl)-4,4a,4b,5,6,6a,9,9a,9b,9c,10,10a-dodecahydrocyclopenta[a]cyclopropa[l]phenanthren-2(3H)-one], the IC50 in series [1] (setting [5]) was > 100 nM. In series [2], the half-life at 1 μM lay within 1 to 50 min. The inhibition at 0.001 µM in series [3] (setting [6]) was > 50%.

For the compound `C[C@]12CCC3C(C=CC4=C(O)C(=O)CC[C@@]43C)C1=CC=C2c1cccnc1` (stereo partly drawn) [Compound 297, (10R,13S)-4-hydroxy-10,13-dimethyl-17-(pyridin-3-yl)-8,9,10,11,12,13-hexahydro-1H-cyclopenta[a]phenanthren-3(2H)-one], in series [1] (setting [7]), the IC50 is > 100 nM. The half-life at 1 μM in series [2] is 1 to 50 min. Besides, the inhibition at 0.001 µM in series [3] (setting [8]) was > 50%.

`CC1C[C@@H]2[C@H](CC[C@]3(C)C(c4cccnc4)CC[C@@H]23)[C@@]2(C)CCNC(=O)C=C12` (stereo partly drawn) [Compound 395, (5aR,7aS)-5a,7a,12-trimethyl-8-(pyridin-3-yl)-3,4,5,5a,5b,6,7,7a,8,9,10,10a,11,12-tetradecahydrocyclopenta[5,6]naphtho[1,2-d]azepin-2(10bH)-one]: the IC50 in series [1] (setting [9]) is < 10 nM. Also, the half-life at 1 μM in series [2] was in the range of 1 to 50 min.

Consider `CC1C[C@@H]2[C@H](CC[C@]3(C)C(c4cccnc4)CC[C@@H]23)[C@@]2(C)C=CC(=O)C=C12` (stereo partly drawn) [Compound 421, (10R,13S)-6,10,13-trimethyl-17-(pyridin-3-yl)-6,7,8,9,10,11,12,13,14,15,16,17-dodecahydro-3H-cyclopenta[a]phenanthren-3-one], for which, in series [1] (setting [9]), the IC50 is < 10 nM. This compound registered a half-life at 1 μM in series [2] of 1 to 50 min.
